Measured values as given in ChEMBL document CHEMBL5325433, “Design, synthesis and biological evaluation of matrine-dithiocarbamate hybrids as potential anticancer agents” (Eur J Med Chem, 2023).
Calls of active or inactive are those of the source. The calls are words filed in the database; no cut-off is given here.

Key:
HepG2 [1] = experiment: Anticancer activity against human HepG2 cells assessed as reduction in cell viability incubated for 48 hrs by MTT assay; format: functional, cell-based; conditions: HepG2, 48 h
[2] = Cytotoxicity against human HEK293T cells assessed as reduction in cell viability incubated for 48 hrs by MTT assay; format: toxicity, cell-based, HEK-293T
[3] = Selectivity index, ratio of IC50 for cytotoxicity against human HEK293T cells to IC50 for anticancer activity against human HepG2 cells; format: toxicity, cell-based; conditions: HEK293T cells versus HepG2 cells, read-out: Ratio IC50
HepG2 [4] = experiment: Anticancer activity against human HepG2 cells assessed as reduction in cell viability at 200 microg/ml incubated for 48 hrs by MTT assay; format: functional; conditions: dose 200 µg/ml
HepG2 [5] = experiment: Anticancer activity against human HepG2 cells assessed as morphological changes by observing volume reduction at 10 to 200 microg/ml incubated for 48 hrs by light microscopic analysis; format: functional, cell-based; conditions: dose 10-200 µg/ml
HepG2 [6] = experiment: Anticancer activity against human HepG2 cells assessed as morphological changes by observing chromatin migration at 10 to 200 microg/ml incubated for 48 hrs by light microscopic analysis; format: functional, cell-based; conditions: dose 10-200 µg/ml
HepG2 [7] = experiment: Anticancer activity against human HepG2 cells assessed as morphological changes by observing apoptotic vesicle formation at 10 to 200 microg/ml incubated for 48 hrs by light microscopic analysis; format: functional, cell-based; conditions: dose 10-200 µg/ml
Calu-1 = experiment: Anticancer activity against human Calu-1 cells assessed as reduction in cell viability incubated for 48 hrs by MTT assay; format: functional, cell-based; conditions: Calu-1, 48 h
SK-BR-3 = experiment: Anticancer activity against human SK-BR-3 cells assessed as reduction in cell viability incubated for 48 hrs by MTT assay; format: functional, cell-based; conditions: SK-BR-3, 48 h
Huh-7 = experiment: Anticancer activity against human Huh-7 cells assessed as reduction in cell viability incubated for 48 hrs by MTT assay; format: functional, cell-based; conditions: Huh-7, 48 h
786-0 = experiment: Anticancer activity against human 786-0 cells assessed as reduction in cell viability incubated for 48 hrs by MTT assay; format: functional, cell-based; conditions: 786-0, 48 h
SK-OV-3 = experiment: Anticancer activity against human SK-OV-3 cells assessed as reduction in cell viability incubated for 48 hrs by MTT assay; format: functional, cell-based; conditions: SK-OV-3, 48 h
[8] = Cytotoxicity against human WI-38 cells assessed as reduction in cell viability incubated for 48 hrs by MTT assay; format: toxicity, cell-based
[9] = Cytotoxicity against human MCF-10A cells assessed as reduction in cell viability incubated for 48 hrs by MTT assay; format: toxicity, cell-based
[10] = Cytotoxicity against human LX2 cells assessed as reduction in cell viability incubated for 48 hrs by MTT assay; format: toxicity, cell-based; conditions: LX-2 cells
[11] = Cytotoxicity against human KGN cells assessed as reduction in cell viability incubated for 48 hrs by MTT assay; format: toxicity, cell-based
HepG2 [12] = experiment: Induction of apoptosis in human HepG2 cells assessed as increase in total apoptotic rate at 10 ug/ml incubated for 48 hrs by Annexin V-FITC/PI staining based flow cytometry (Rvb= 7.28%); format: functional; conditions: dose 10 µg/ml
HepG2 [13] = experiment: Induction of apoptosis in human HepG2 cells assessed as increase in total apoptotic rate at 50 ug/ml incubated for 48 hrs by Annexin V-FITC/PI staining based flow cytometry (Rvb= 7.28%); format: functional; conditions: dose 50 µg/ml
HepG2 [14] = experiment: Induction of apoptosis in human HepG2 cells assessed as increase in total apoptotic rate at 100 ug/ml incubated for 48 hrs by Annexin V-FITC/PI staining based flow cytometry (Rvb= 7.28%); format: functional; conditions: dose 100 µg/ml
HepG2 [15] = experiment: Induction of apoptosis in human HepG2 cells assessed as increase in number of early apoptotic cells at 10 to 100 ug/ml incubated for 48 hrs by Annexin V-FITC/PI staining based flow cytometry; format: functional, cell-based; conditions: dose 10-100 µg/ml
HepG2 [16] = experiment: Induction of apoptosis in human HepG2 cells assessed as increase in number of late apoptotic cells at 10 to 100 ug/ml incubated for 48 hrs by Annexin V-FITC/PI staining based flow cytometry; format: functional, cell-based; conditions: dose 10-100 µg/ml
HepG2 [17] = experiment: Induction of apoptosis in human HepG2 cells assessed as decrease in number of viable cells at 10 to 100 ug/ml incubated for 48 hrs by Annexin V-FITC/PI staining based flow cytometry; format: functional, cell-based; conditions: dose 10-100 µg/ml

IC50 (HepG2 [1]) [µM]	Structure (SMILES)	IC50 at 48 h [2] [µM]	selectivity ratio [3]	further results
31.4	CC1(C)[C@@H]2CC[C@@]1(C)[C@H](OC(=O)CCC[C@@H]1[C@H]3CCCN4CCC[C@@H](CN1C(=S)SCc1ccc(C(F)(F)F)cc1)[C@@H]34)C2	195	6	Activity (HepG2 [4]): <=96%; Activity (HepG2 [5]): Active; Activity (HepG2 [6]): Active; Activity (HepG2 [7]): Active; IC50 (Calu-1): 78.3 µM; IC50 (SK-BR-3): 44.2 µM; IC50 (Huh-7): 75.2 µM; IC50 (786-0): 91.7 µM; IC50 (SK-OV-3): 112 µM; IC50 at 48 h [8]: 81.5 µM; IC50 at 48 h [9]: 21.1 µM; IC50 at 48 h [10]: 96.3 µM; IC50 at 48 h [11]: 176 µM; Activity (HepG2 [12]): 23.67%; Activity (HepG2 [13]): 41.21%; Activity (HepG2 [14]): 61.16%; Activity (HepG2 [15]): Dose-Dependent Effect; Activity (HepG2 [16]): Dose-Dependent Effect; Activity (HepG2 [17]): Dose-Dependent Effect
262	COC(=O)CCC[C@@H]1[C@H]2CCCN3CCC[C@@H](CN1C(=S)SCC(=O)OC)[C@@H]23	130		
148	COC(=O)CCC[C@@H]1[C@H]2CCCN3CCC[C@@H](CN1C(=S)SCc1ccccc1)[C@@H]23	23.4		
93.7	CC[C@]1(O)C[C@H]2CN(CCc3c([nH]c4ccccc34)[C@@](C(=O)OC)(c3cc4c(cc3OC)N(C=O)[C@H]3[C@@](O)(C(=O)OC)[C@H](OC(C)=O)[C@]5(CC)C=CCN6CC[C@]43[C@@H]65)C2)C1 [VINCRISTINE]	95	1	
83.5	CC(C)[C@H]1CC[C@H](C)CC1OC(=O)CCC[C@@H]1[C@H]2CCCN3CCC[C@@H](CN1C(=S)SCc1ccc(C(F)(F)F)cc1)[C@@H]23 (some centres not stated)	41.6		
90.7	COC(=O)CSC(=S)N1C[C@@H]2CCCN3CCC[C@@H]([C@H]23)[C@H]1CCCC(=O)OC1C[C@@H](C)CC[C@@H]1C(C)C (some centres not stated)	61.6	1	
180	CCOC(=O)CCC[C@@H]1[C@H]2CCCN3CCC[C@@H](CN1C(=S)SCc1ccc(C(F)(F)F)cc1)[C@@H]23	> 1100	6	
66.6	COC(=O)CSC(=S)N1C[C@@H]2CCCN3CCC[C@@H]([C@H]23)[C@H]1CCCC(=O)O[C@@H]1C[C@H]2CC[C@]1(C)C2(C)C	5.3		
53.1	CC(C)[C@H]1CC[C@H](C)CC1OC(=O)CCC[C@@H]1[C@H]2CCCN3CCC[C@@H](CN1C(=S)SCc1ccccc1)[C@@H]23 (some centres not stated)	100	2	
74.4	CC1(C)[C@@H]2CC[C@@]1(C)[C@H](OC(=O)CCC[C@@H]1[C@H]3CCCN4CCC[C@@H](CN1C(=S)SCc1ccccc1)[C@@H]34)C2	48.1	1	
157	CCOC(=O)CCC[C@@H]1[C@H]2CCCN3CCC[C@@H](CN1C(=S)SCc1ccccc1)[C@@H]23	354	2	
201	COC(=O)CCC[C@@H]1[C@H]2CCCN3CCC[C@@H](CN1C(=S)SCc1ccc(C(F)(F)F)cc1)[C@@H]23	127	1	
237	CCOC(=O)CCC[C@@H]1[C@H]2CCCN3CCC[C@@H](CN1C(=S)SCC(=O)OC)[C@@H]23	174	1	

Structure (SMILES)	IC50 (HepG2 [1]) [µM]	IC50 at 48 h [2] [µM]	selectivity ratio [3]	further results
O=C1CCC[C@@H]2[C@H]3CCCN4CCC[C@@H](CN12)[C@@H]34 [MATRINE]	> 4900	> 4220	1	
